Values quoted from earlier work, collected in patent US20220142893A1, “THE PROCESS OF DYEING KERATINOUS MATERIAL COMPRISING THE USE OF AN ORGANOSILICON COMPOUND, TWO COLOR-IMPARTING COMPOUNDS AND A FILM-FORMING POLYMER” (Henkel AG & Co. KGaA, priority 2019, published 2022).

Conditions: 25° C.

| SMILES | solubility in water | solubility in water (in words) |
| --- | --- | --- |
| O=S(=O)([O-])c1ccc(N=Nc2c(O)ccc3ccccc23)cc1.[Na+] [Acid Orange 7, sodium salt of 4-[(2-hydroxy-1-naphthyl)azo]benzene sulphonate] | more than 7 g/L |  |
| Nc1cc(S(=O)(=O)[O-])cc2cc(S(=O)(=O)[O-])c(N=Nc3ccccc3)c(O)c12.[Na+].[Na+] [Acid Red 33, disodium salt of 5-amino-4-hydroxy-3-(phenylazo)-naphthalene-2,7-disulphonate] | 2.5 mg/mL |  |
| O=C([O-])c1c(Cl)c(Cl)c(Cl)c(Cl)c1-c1c2c(Br)cc(=O)c(Br)c-2oc2c(Br)c(O)cc(Br)c12.O=C([O-])c1c(Cl)c(Cl)c(Cl)c(Cl)c1-c1c2c(Br)cc(=O)c(Br)c-2oc2c(Br)c(O)cc(Br)c12.[Na+].[Na+] [Acid Red 92, disodium salt of 3,4,5,6-tetrachloro-2-(1,4,5,8-tetrabromo-6-hydroxy-3-oxoxanthen-9-yl)benzoic acid] | greater than 10 g/L |  |
| O=C([O-])C1=NN(c2ccc(S(=O)(=O)[O-])cc2)C(=O)C1N=Nc1ccc(S(=O)(=O)[O-])cc1.[Na+].[Na+].[Na+] (stereo not shown) [Acid Yellow 23, trisodium salt of 4,5-dihydro-5-oxo-1-(4-sulfophenyl)-4-((4-sulfophenyl)azo)-1H-pyrazole-3-carboxylic acid] |  | highly soluble |
